The source of these data is patent US8575306B2, “Target and method for inhibition of bacterial RNA polymerase” (Rutgers, The State University of New Jersey, priority 2002, dated 2013).

Entries after “also recorded” stand apart in the source; their conditions may differ. Where a SMILES comes first, the peptide text is derived from it.

For assay [1], the target named is T1, RNAP holoenzyme (Escherichia coli, UniProt P0A8T7).
T1 construct: RNAP holoenzyme was prepared from, strain XE54/pREII-NHα; made in house; host or cells: E. coli strain XE54/pREII-NHα
In words: Electrophoretic mobility shift assays (open-complex formation, lacUV5 promoter). In kind it is biochemical. The following applies: MccJ25 at 1, 10, or 100 μM. On the procedure:
Following 15 min at 37° C., 0.5 μl 1 mg/ml heparin was added (to disrupt non-specific complexes (Cech and McClure (1980) Biochem. 19, 2440-2447)), and, following a further 2 min at 37° C., reaction mixtures were applied to 5% polyacrylamide slab gels (30:1 acrylamide/bisacrylamide; 6×9×0.1 cm) and electrophoresed in 90 mM Tris-borate (pH 8.0) and 0.2 mM EDTA (20 V/cm; 30 mm at 37° C.) and analyzed using an x/y fluorescence scanner (Storm 860; Molecular Dynamics, Inc.).

Assay [2] deals with T1, RNAP holoenzyme. Briefly: Fluorescence-detected abortive initiation assays. The following applies: iterative tri- and tetranucleotide synthesis. It is filed as biochemical. Here is the method:
Following 15 min at 37° C. 0.5 μl mg/ml heparin was added, and, following a further 2 min at 37° C., 1 μl of 0.25-5 mM (y-AmNS)UTP (Molecular Probes, Inc.) was added, and reaction mixtures were transferred to sub-micro fluorometer cuvettes (Starna Cells, Inc.). Following 2 min at 37° C., RNA synthesis was initiated by addition of 2.5 μl 10 mM ApA, and fluorescence emission intensity was monitored 5 min at 37° C. [excitation wavelength=360 nm and emission wavelength=500 nm; excitation and emission slit widths=4 nm; QuantaMaster QM1 spectrofluororaeter (PTI, Inc).]. The quantity of UMP incorporated into RINA was determined from the quantity of (γ−AmNS)UTP consumed, which, in turn, was calculated as follows (Schlageck et al. 1979): (γ−AmNS)UTPconsumed=[(γ−AmNS)UTP0](Ft−F0)/(12.4×F0) where (γ−AmNS)UTP0 is the quantity of (γ−AmNS)UTP at time 0, F0 is the fluorescence emission intensity at time 0, and Ft is the fluorescence emission intensity at time t. Data were fit to full-competitive, partial-competitive, full-noncompetitive, partial-noncompetitive, full-uncompetitive, partial-uncompetitive, full-mixed, and partial-mixed models of inhibition as in the preceding section.

For assay [3], the target named is T2, [Ile931]β′-RNAP holoenzyme (Escherichia coli, UniProt P0A8T7, T931I).
T2 construct: hexahistidine (C); made in house; host or cells: E. coli strain 397c (rpoC ts397) transformed with a pRL663 derivative
In words: Transcription assays with MccJ25-resistant RNAP derivative. It is filed as biochemical. On the procedure: MccJ25 interferes with a process common to both abortive initiation and elongation—i.e., NTP uptake, phosphodiester-bond formation, or translocation.
RNAP holoenzyme was prepared from, strain XE54/pREII-NHα (thi pREII-NHα; Niu et al., (1996) Cell 87, 1123-1134) using metal-ion affinity chromatography and ion-exchange chromatography (Id.). (Ile931]β′-RNAP holoenzyme was prepared from strain 397c [rpoC^ts397 argG thi lac λcI857h80St68dlac^+); Christie et al., (1996) J. Bacteriol. 178, 6991-6993) transformed with a pRL663 derivative encoding [Ile931]β′-RNAP (constructed using site-directed mutagenesis (QuikChange Site-Directed Mutagenesis Kit; Stratagene, Inc).) using identical procedures. Yields typically were 6 mg. Purities typically were >95%.
Following 15 min at 37° C., 0.5 μl 1 mg/ml heparin, was added, and, following a further 2 min at 37° C., RNA synthesis was initiated by addition of 2 μl 5 mM ApA and 125 μM (or 250 jiM, 500 μM, and 1 mM) each of [α-^32P]UTP (0.6 Bq/fmol), ATP, CTP, GTP. […] Products were heated 10 min at 90° C., resolved by urea-PAGE (Sambrook and Russell (2001). Molecular Cloning: A Laboratory Manual (Cold Spring Harbor, N.Y., Cold Spring Harbor Laboratory)), and quantified using an x/y storage-phosphor scanner (Storm 860; Molecular Dynamics, Inc.). […]

Another assay has as its target RNAP (Escherichia coli, UniProt P0A8T7). The following applies: crude cell extracts; Delgado et al. (2001); cited from earlier work.
The next assay deals with RNAP secondary channel (Escherichia coli, UniProt P0A8T7). Briefly: Fluorescence-resonance-energy-transfer experiments with a fluorochrome-labelled MccJ25 derivative. It is filed as binding. Particulars: preliminary results. The text has this: The results of Yuzenkova et al., (2002) J. Biol. Chem. 277, 50867-50875, although limited, also indicate that inhibition involves a multi-residue determinant within the RNAP secondary channel (five sites for substitutions conferring MccJ25-resistance). […] The RNAP secondary channel is a 25 Å long, ˜10-15 Å wide, fully enclosed tunnel through which NTPs must pass to access the RNAP active-center and NTP binding site (Zhang et al., (1999) Cell 98, 811-824; Cramer et al., (2001) Science 292, 1863-1876; and Ebright (2000) J. Mol. Biol. 304, 687-689).

Turning to `CC[C@H](C)[C@H](NC(=O)CNC(=O)[C@@H](NC(=O)[C@H](Cc1ccccc1)NC(=O)[C@H](Cc1ccc(O)cc1)NC(=O)[C@@H]1CCC(=O)NCC(=O)NCC(=O)N[C@@H](C)C(=O)NCC(=O)N[C@@H](Cc2c[nH]cn2)C(=O)N[C@@H](C(C)C)C(=O)N2CCC[C@H]2C(=O)N1)C(C)C)C(=O)NCC(=O)N[C@H](C(=O)N1CCC[C@H]1C(=O)N[C@H](C(=O)N[C@@H](CO)C(=O)N[C@@H](Cc1ccccc1)C(=O)N[C@@H](Cc1ccc(O)cc1)C(=O)NCC(=O)O)[C@@H](C)CC)[C@@H](C)O` [MccJ25] (HELM PEPTIDE1{G.G.A.G.H.V.P.E.Y.F.V.G.I.G.T.P.I.S.F.Y.G}$PEPTIDE1,PEPTIDE1,1:R1-8:R3$$$V2.0), on RNAP holoenzyme [1], the “effect on formation of open complex” value is recorded as “no effect; also recorded: does not inhibit”. For the same compound, the mode of inhibition entry on RNAP holoenzyme [2] is listed as “partial-competitive”. In assay [3], the “inhibition of transcription upon substitution of residue 931 of the RNAP β′ subunit (Thr931→Ile)” value was “overcome completely”. The “inhibition of RNAP-dependent transcription” value at RNAP is “inhibits”. Further, the “binding site on RNAP” value on RNAP secondary channel is listed as “binds within the RNAP secondary channel”.
